These molecules were tested on genotype A, "Long" strain RSV (assay: RSV-A assay: CPE protection in HEp-2 cells, ATPlite readout). Settings: HEp-2 cells, RSV-A Long strain, ATPlite readout; read-out: Human RSV-A (“Long” strain) EC50.
Format: cell-based, human respiratory syncytial virus
Excerpt: HEp-2 cells, (originally derived from tumors grown in irradiated-cortisonised weanling rats that had been injected with epidermoid carcinoma tissue from a person's larynx, but later found to be indistinguishable from HeLa cells by PCR DNA analysis), were used for the culturing of genotype A, “Long” strain RSV. Flasks were inoculated with RSV and viral stocks were collected once cytopathic effect (CPE) was greater than 90%. Viral stocks in 25% sucrose media were snap frozen using liquid nitrogen to increase viral stability. Viral stock titers were quantified by tissue culture infectious dose 50% (TCID50) using 8,000 cells per well and 3-fold viral dilutions across a 96-well plate, cultured for 4 days. Viral stock titers were also quantified by a plaque forming unit assay, as described elsewhere.
Following extensive parameter testing, the final assay is run as follows: HEp-2 cells are seeded into the inner 60 wells of a 96-well plate at 8,000 cells per well in a volume of 50 μL using Growth Media (DMEM without phenol red, 1% L-Glut, 1% Penn/Strep, 1% nonessential amino acids, 10% heat-inactivated FBS). 2-fold serial dilutions of control and test compounds are added to the wells in duplicate in a total volume of 25 μL. Viral stock is then added to the wells at a multiplicity of infection (MOI) of 0.1 in a volume of 25 μL, bringing the total volume of each well to 100 μL. The MOI is calculated using the PFU/mL, or TCID50 if unavailable. Each 96-well plate has a control column of 6 wells with cells and virus but no compound (negative control, max CPE), a column with cells but no compound or virus (positive control, minimum CPE), and a column with no cells or virus or compound (background plate/reagent control). The control wells with cells but no virus are given an additional 25 μL of growth media containing an equal quantity of sucrose as those wells receiving the viral stock in order to keep consistent in media and volume conditions. The outer wells of the plate are filled with 125 μL of moat media (DMEM, 1% Penn/Strep) to act as a thermal and evaporative moat around the test wells. Following a 5-day incubation period, the plates are read using ATPlite (50 μL added per well), which quantifies the amount of ATP (a measure of cell health) present in each well. Assay plates are read using the Envision luminometer. In parallel, cytotoxicity is examined on an additional 96-well plate treated in an identical manner, but substituting the 25 μL of viral stock for 25 μL of growth media. […] EC50 ranges are as follows: A <0.4 μM; B 0.4-0.8 μM; C >0.8 μM and CC50 ranges are as follows: A >50 μM; B 10-50 μM; C <10 μM.
In the case of `O=C1Nc2ccccc2C(c2ccccc2)=N[C@@H]1Nc1nnc(-c2nc(C(F)(F)F)sc2N2CCO[C@H]3C[C@H]32)o1` [Example 485], the EC50 is reported as greater than 800 nM.
Molecule `O=C1Nc2c(F)cccc2C(c2ccccc2)=N[C@@H]1Nc1nnc(-c2ncc(C(F)(F)F)cc2N2CCOCC2)o1` (single isomer, unassigned) [Example 359] has an EC50 of less than 400 nM.
`O=C1Nc2c(F)cccc2C(c2ccccc2)=N[C@@H]1Nc1nnc(-c2cccnc2N2CCOCC2)o1` (single isomer, unassigned) [Example 357] gave an EC50 greater than 800 nM.

Same assay, conditions: human respiratory syncytial virus, HEp-2, read-out: Human RSV-A (“Long” strain) EC50
`Cc1cc(-c2nnc(NC3N=C(c4ccccc4)c4ccccc4NC3=O)o2)ccc1-n1cncn1` (stereo not drawn) [Example 217] showed an EC50 of 400 to 800 nM.
`COc1ccn2ncc(-c3nnc(N[C@H]4N=C(c5ccccc5)c5ccccc5NC4=O)o3)c2c1` [Example 410] was tested, and the EC50 was greater than 800 nM.
Work on `O=C1Nc2ccccc2C(c2ccccc2)=NC1Nc1cnc(-c2ccc(F)cc2)cn1` (stereo not drawn) [Example 373] yielded an EC50 greater than 800 nM.
In the case of `O=C1Nc2ccccc2C(c2ccccc2)=N[C@@H]1Nc1nnc(-c2ccc(=O)[nH]c2N2CCOCC2)o1` [Example 156, (S)-3-((5-(2-morpholino-6-oxo-1,6-dihydropyridin-3-yl)-1,3,4-oxadiazol-2-yl)amino)-5-phenyl-1,3-dihydro-2H-benzo[e][1,4]diazepin-2-one], the EC50 is reported as greater than 800 nM.
With `O=C1Nc2ccccc2C(c2ccccc2)=NC1Nc1nnc(-c2ncc(C(F)F)cc2N2CCOCC2)o1` (stereo not drawn) [Example 461] the EC50 was less than 400 nM.
`COC1CN(c2cc(C(F)(F)F)cnc2-c2nnc(N[C@H]3N=C(c4ccccc4)c4ccccc4NC3=O)o2)C1` [Example 271] gave an EC50 greater than 800 nM.
`C[C@@H]1CN(c2cc(C#N)cnc2-c2nnc(N[C@H]3N=C(c4ccccc4)c4ccccc4NC3=O)o2)CCO1` [Example 326] was tested, and the EC50 was 400 to 800 nM.
In the case of `O=C1Nc2ccccc2C(c2ccccc2)=N[C@@H]1Nc1nnc(-c2cc(C(F)(F)F)sc2N2CCOCC2)o1` [Example 383], the EC50 is reported as less than 400 nM.
`COCCNc1sccc1-c1nnc(N[C@H]2N=C(c3ccccc3)c3ccccc3NC2=O)o1` [Example 472] was tested, and the EC50 was greater than 800 nM.
For `O=C1Nc2ccccc2C(c2ccccc2)=N[C@@H]1Nc1nnc(-c2ncc3ccccc3c2N2CCOCC2)o1` [Example 316], the EC50 was greater than 800 nM.
`Cn1ncc(-c2nnc(N[C@H]3N=C(c4ccccc4)c4ccccc4NC3=O)o2)c1N1CCOCC1` [Example 177] was tested, and the EC50 was greater than 800 nM.
With `Cc1nc(-c2nnc(N[C@H]3N=C(c4ccccc4)c4ccccc4NC3=O)o2)c(N2CCOCC2)o1` [Example 337] the EC50 was less than 400 nM.
With `O=C1Nc2ccccc2C(c2ccccc2)=NC1Nc1nnc(CCc2ccccc2)o1` (stereo not drawn) [Example 199] the EC50 was greater than 800 nM.
Molecule `O=C1Nc2ccccc2C(c2ccccc2)=N[C@@H]1Nc1nnc(-c2nc(C3CCCCC3)sc2N2CCOCC2)o1` [Example 405] has an EC50 of less than 400 nM.
With `O=C1Nc2ccccc2C(c2ccccc2)=NC1Nc1nnc(-c2ccc(C(F)(F)F)nc2N2CCOCC2)o1` (stereo not drawn) [Example 130] the EC50 was 400 to 800 nM.
`O=C1Nc2ccccc2C(c2ccccc2)=NC1Nc1nnc(-c2cccnc2N2C[C@@H]3C[C@H]2CO3)o1` (stereo partly drawn) [Example 248] showed an EC50 greater than 800 nM.
`O=C1Nc2ccccc2C(c2ccccc2)=N[C@@H]1Nc1nnc(-c2occc2N2CCOCC2)o1` [Example 348] showed an EC50 of less than 400 nM.
With `CO[C@@H]1COC[C@H]1Nc1cc(C(F)(F)F)cnc1-c1nnc(N[C@H]2N=C(c3ccccc3)c3ccccc3NC2=O)o1` [Example 436] the EC50 was less than 400 nM.
`O=C1Nc2ccccc2C(c2ccccc2)=N[C@@H]1Nc1nnc(-c2ncc(C(F)(F)F)cc2N[C@@H]2CCC[C@@H]2O)o1` [Example 423] showed an EC50 of 400 to 800 nM.
`O=C1Nc2ccccc2C(c2ccccc2)=NC1Nc1nnc(-c2cccnc2N2CCCCC2)o1` (stereo not drawn) [Example 241] gave an EC50 greater than 800 nM.
`CN(C)c1cc(C(F)(F)F)cnc1-c1nnc(N[C@H]2N=C(c3ccccc3)c3ccccc3NC2=O)o1` [Example 302] showed an EC50 greater than 800 nM.
In the case of `O=C1Nc2ccccc2C(c2ccccc2)=NC1Nc1nnc(-c2cnccc2N2CCOCC2)o1` (stereo not drawn) [Example 133], the EC50 is reported as 400 to 800 nM.
`O=C1Nc2ccccc2C(c2ccccc2)=N[C@@H]1Nc1nnc(-c2nc(C3CC3)ccc2N2CCOCC2)o1` [Example 318] was tested, and the EC50 was less than 400 nM.
`O=C1Nc2ccccc2C(c2ccccc2)=NC1Nc1nnc(-c2ccc(N3CCCC3)cc2)o1` (stereo not drawn) [Example 184] gave an EC50 of 400 to 800 nM.
`O=C1Nc2ccccc2C(c2cccc(F)c2)=NC1Nc1nnc(-c2ccc(F)cc2)o1` (stereo not drawn) [Example 380] showed an EC50 of 400 to 800 nM.
Molecule `O=C1Nc2ccccc2C(c2ccccc2)=NC1Nc1nnc(-c2cccnc2N2CCn3ncnc3C2)o1` (stereo not drawn) [Example 270] has an EC50 greater than 800 nM.
`CC1(C)CC(c2nnc(NC3N=C(c4ccccc4)c4ccccc4NC3=O)o2)C1` (stereo not drawn) [Example 206] gave an EC50 greater than 800 nM.
`O=C1Nc2ccccc2C(c2ccccc2)=N[C@@H]1Nc1nnc(-c2nc(C3(C(F)(F)F)CC3)sc2N2CCOCC2)o1` [Example 460] was tested, and the EC50 was less than 400 nM.
`N#CC1CCN(c2ncccc2-c2nnc(NC3N=C(c4ccccc4)c4ccccc4NC3=O)o2)CC1` (stereo not drawn) [Example 260] was tested, and the EC50 was greater than 800 nM.
Work on `Cn1cc(N2CCOCC2)c(-c2nnc(N[C@H]3N=C(c4ccccc4)c4ccccc4NC3=O)o2)n1` [Example 164] yielded an EC50 of less than 400 nM.
`O=C1Nc2ccccc2C(c2ccccc2)=NC1Nc1nnc(-c2ccccc2-c2ccncc2)o1` (stereo not drawn) [Example 226] was tested, and the EC50 was greater than 800 nM.
In the case of `COCc1ccn2ncc(-c3nnc(N[C@H]4N=C(c5ccccc5)c5ccccc5NC4=O)o3)c2c1` [Example 449], the EC50 is reported as greater than 800 nM.
In the case of `C[C@@H]1CN(c2ccc(-c3nnc(N[C@H]4N=C(c5ccccc5)c5ccccc5NC4=O)o3)c(Cl)c2)C[C@H](C)O1` [Example 243], the EC50 is reported as greater than 800 nM.
Work on `COc1ccccc1-c1nc(-c2nnc(N[C@H]3N=C(c4ccccc4)c4ccccc4NC3=O)o2)c(N2CCOCC2)s1` [Example 342] yielded an EC50 of less than 400 nM.
`O=C1Nc2ccccc2C(c2ccccc2)=NC1Nc1nnc(C2CC2)[nH]1` (stereo not drawn) [Example 372] showed an EC50 greater than 800 nM.
Molecule `O=C1Nc2ccccc2C(c2ccccc2)=NC1Nc1nnc(-c2ccc(OC3CCOCC3)cc2)o1` (stereo not drawn) [Example 220] has an EC50 greater than 800 nM.
With `O=C1Nc2ccccc2C(c2ccccc2)=N[C@@H]1Nc1nnc(-c2ncc(C(F)(F)F)cc2N[C@H]2CCC[C@H]2O)o1` [Example 422] the EC50 was 400 to 800 nM.
For `COCCOc1ccc(-c2nnc(NC3N=C(c4ccccc4)c4ccccc4NC3=O)o2)cc1` (stereo not drawn) [Example 236], the EC50 was greater than 800 nM.
For `O=C1Nc2ccccc2C(c2ccccc2)=NC1Nc1nnc(-c2ccc(N3CCOCC3)c(F)c2)o1` (stereo not drawn) [Example 112], the EC50 was greater than 800 nM.
Work on `CN(C)CCOc1ccccc1-c1nnc(NC2N=C(c3ccccc3)c3ccccc3NC2=O)o1` (stereo not drawn) [Example 234] yielded an EC50 greater than 800 nM.
For `Cc1nc(-c2nnc(N[C@H]3N=C(c4ccccc4)c4ccccc4NC3=O)o2)c(Cl)s1` [Example 344], the EC50 was greater than 800 nM.
Work on `O=C1Nc2ccccc2C(c2ccccc2)=NC1Nc1nnc(-c2ccc(N3CCOCC3)nc2)o1` (stereo not drawn) [Example 115] yielded an EC50 of less than 400 nM.
`Cc1cc(-n2cncn2)ccc1-c1nnc(NC2N=C(c3ccccc3)c3ccccc3NC2=O)o1` (stereo not drawn) [Example 218] gave an EC50 greater than 800 nM.
`O=C1Nc2ccccc2C(c2ccccc2)=N[C@@H]1Nc1nnc(-c2cnc(N3CCOCC3)cn2)o1` [Example 161] was tested, and the EC50 was greater than 800 nM.
For `COC[C@H]1CCCN1c1sc(C(F)(F)F)nc1-c1nnc(N[C@H]2N=C(c3ccccc3)c3ccccc3NC2=O)o1` [Example 456], the EC50 was greater than 800 nM.
`COCC1(Nc2cc(C(F)(F)F)cnc2-c2nnc(N[C@H]3N=C(c4ccccc4)c4ccccc4NC3=O)o2)CC1` [Example 415] showed an EC50 greater than 800 nM.
In the case of `Cc1cc(-c2nnc(NC3N=C(c4ccccc4)c4ccccc4NC3=O)o2)ccc1N1CCOCC1` (stereo not drawn) [Example 113], the EC50 is reported as 400 to 800 nM.
For `CS(=O)(=O)Cc1nnc(NC2N=C(c3ccccc3)c3ccccc3NC2=O)o1` (stereo not drawn) [Example 194], the EC50 was greater than 800 nM.
`N#Cc1ccc(-c2nnc(N[C@H]3N=C(c4ccccc4)c4ccccc4NC3=O)o2)c(-c2ccsc2)c1` [Example 309] gave an EC50 greater than 800 nM.
`O=C1Nc2ccccc2C(c2ccccc2)=NC1Nc1nnc(-c2ccccc2C2CCOCC2)o1` (stereo not drawn) [Example 354] showed an EC50 greater than 800 nM.
With `O=C1Nc2ccccc2C(c2ccccc2)=NC1Nc1nnc(-c2ccc(-n3cncn3)nc2)o1` (stereo not drawn) [Example 225] the EC50 was greater than 800 nM.
`O=C1Nc2ccccc2C(c2ccccc2)=NC1Nc1noc(-c2ccccc2)n1` (stereo not drawn) [Example 91] was tested, and the EC50 was greater than 800 nM.
Work on `O=C1Nc2ccccc2C(c2ccccc2)=N[C@@H]1Nc1nnc(-c2nc(C3(C(F)(F)F)CCC3)sc2N2CCOCC2)o1` [Example 490] yielded an EC50 of less than 400 nM.
For `N#CCCc1nnc(NC2N=C(c3ccccc3)c3ccccc3NC2=O)o1` (stereo not drawn) [Example 193], the EC50 was greater than 800 nM.
